Drawing on PubChem BioAssay (NCI), this text covers TGI and GI50 for 11 compounds.

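Each compound was tested at five concentrations against cells in 96-well plates for 48 hours. Here, GI50 denotes the concentration required for 50% inhibition of growth. TGI is the concentration that stops growth completely.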

Among the test systems are KM12 colon; HCT-116 colon; MALME-3M melanoma; NCI-H460 lung; SK-MEL-2 melanoma; K-562 leukemia; SF-539 CNS; EKVX NSCLC; OVCAR-4 ovarian; HCT-15 colon; CCRF-CEM leukemia.
What all share (assay): growth of human tumour cells (NCI), 48 h

On to `CC(=O)N1C(CCc2ccccc2)CC(C)(C=O)C1Cc1ccc(O[Si](C(C)C)(C(C)C)C(C)C)cc1` (stereo not drawn), for which the TGI in the experiment with KM12 colon is 11.8 µM; with HCT-116 colon, 9.03 µM; in the experiment with MALME-3M melanoma, 27.3 µM; in the experiment on NCI-H460 lung, 9.05 µM; in the experiment with SK-MEL-2 melanoma it was 8.02 µM; in the experiment on K-562 leukemia, above 26.1 µM. In addition, the TGI was found to be 6.03 µM in the experiment with SF-539 CNS, 15.8 µM with EKVX NSCLC, 16.8 µM in the experiment with OVCAR-4 ovarian and 10.7 µM in the experiment on HCT-15 colon.

As for `COCCNCc1ccc(-c2cc3nccc(Oc4ccc(NC(=O)C5(C(=O)Nc6ccc(F)cc6)CC5)cc4F)c3s2)nc1`, the GI50 is 41.1 nM in the experiment with KM12 colon; 1780 nM in the experiment on HCT-116 colon; 1660 nM with NCI-H460 lung; 2550 nM in the experiment on CCRF-CEM leukemia; 1820 nM in the experiment on SK-MEL-2 melanoma; 252 nM in the experiment on K-562 leukemia. Moreover, the values for the GI50 with OVCAR-4 ovarian and in the experiment on HCT-15 colon were 1670 nM and 1680 nM, respectively. Moreover, the TGI in the experiment with KM12 colon came out at 2.95 µM; with HCT-116 colon, 3.92 µM; in the experiment with NCI-H460 lung, 3.4 µM; in the experiment on CCRF-CEM leukemia, 7.06 µM; with SK-MEL-2 melanoma it was 3.6 µM; in the experiment on K-562 leukemia it was 1.83 µM. The results for the TGI in the experiment on OVCAR-4 ovarian and with HCT-15 colon were 4.79 µM and 4.57 µM, respectively.

Regarding `O=S(O)CCCSSSCCCS(=O)O`, the TGI in the experiment on KM12 colon, in the experiment with HCT-116 colon, with MALME-3M melanoma, in the experiment on NCI-H460 lung, in the experiment with CCRF-CEM leukemia and with SK-MEL-2 melanoma was above 100 µM throughout. Moreover, the TGI with K-562 leukemia, in the experiment on SF-539 CNS, with EKVX NSCLC and in the experiment with OVCAR-4 ovarian was above 100 µM each time.

`COc1cc(NCCC(=O)O)c2ncccc2c1`: the TGI with HCT-116 colon, in the experiment on MALME-3M melanoma, in the experiment on NCI-H460 lung, in the experiment on CCRF-CEM leukemia, in the experiment with SK-MEL-2 melanoma and in the experiment with K-562 leukemia was above 100 µM each time. Further, the TGI with EKVX NSCLC, in the experiment with OVCAR-4 ovarian and with HCT-15 colon was above 100 µM throughout.

`Cc1ccc(Nc2nc(=O)c3c([nH]c4ccccc43)s2)cc1`: the TGI is 16.2 µM with KM12 colon; 26.8 µM in the experiment with MALME-3M melanoma; 25.7 µM in the experiment on NCI-H460 lung; 53.3 µM in the experiment on CCRF-CEM leukemia; 31.3 µM with SK-MEL-2 melanoma; above 100 µM with K-562 leukemia. Besides, the TGI with SF-539 CNS came out at 31.6 µM; with EKVX NSCLC, 64.2 µM; in the experiment on OVCAR-4 ovarian, 55.4 µM; in the experiment with HCT-15 colon, 23.1 µM.

Take `S=c1[nH]n2c(COc3ccc(Cl)cc3)nnc2s1`: the TGI with KM12 colon, in the experiment on HCT-116 colon, in the experiment on MALME-3M melanoma, with NCI-H460 lung, in the experiment on SK-MEL-2 melanoma and in the experiment on K-562 leukemia was above 100 µM in each case. Also, the TGI with SF-539 CNS, in the experiment with EKVX NSCLC, in the experiment on OVCAR-4 ovarian and in the experiment with HCT-15 colon was above 100 µM throughout.

Regarding `NNC(=O)c1cc([N+](=O)[O-])ccc1NC(=O)C12CC3CC(CC(C3)C1)C2`, the TGI with KM12 colon is above 100 µM; with HCT-116 colon, above 100 µM; with MALME-3M melanoma, 56.1 µM; in the experiment on NCI-H460 lung it was 62.8 µM; in the experiment on CCRF-CEM leukemia it was 24.9 µM; in the experiment with K-562 leukemia, above 100 µM. Further, the TGI with SF-539 CNS is 50.1 µM; in the experiment on EKVX NSCLC it was above 100 µM; in the experiment on OVCAR-4 ovarian, 23 µM; in the experiment on HCT-15 colon, 3.42 µM.

As to `c1csc(-c2ccc(CNc3c4ccccc4nc4ccccc34)cc2)c1`, the GI50 in the experiment on CCRF-CEM leukemia was 1280 nM; in the experiment on SK-MEL-2 melanoma it was 2110 nM; with OVCAR-4 ovarian, 1530 nM. Also, the TGI with CCRF-CEM leukemia is 3.91 µM; with SK-MEL-2 melanoma it was 4.79 µM; in the experiment on OVCAR-4 ovarian it was 3.07 µM.

As to `CC[C@@H]([C@H](O)c1ccccc1Cl)[N+](=O)[O-]`, the TGI in the experiment on KM12 colon, in the experiment with HCT-116 colon, with NCI-H460 lung, in the experiment with CCRF-CEM leukemia, with SK-MEL-2 melanoma and in the experiment on SF-539 CNS was above 100 µM throughout. Moreover, the TGI with EKVX NSCLC, in the experiment on OVCAR-4 ovarian and in the experiment on HCT-15 colon was above 100 µM throughout.

In the case of `CN(c1ccccc1)c1nc(=[N+]2CCCC2)ss1`, the TGI in the experiment with KM12 colon, with HCT-116 colon, with MALME-3M melanoma, in the experiment with NCI-H460 lung, with CCRF-CEM leukemia and in the experiment with SK-MEL-2 melanoma was above 100 µM in each case. Besides, the TGI in the experiment on K-562 leukemia, with EKVX NSCLC, with OVCAR-4 ovarian and in the experiment with HCT-15 colon was above 100 µM throughout.

Consider `Cc1cccc2c1Sc1ccccc1C2NC(=O)CN(C)C` (stereo not drawn), for which the TGI with HCT-116 colon, in the experiment on NCI-H460 lung, in the experiment on CCRF-CEM leukemia, in the experiment with K-562 leukemia, in the experiment on SF-539 CNS and with EKVX NSCLC was above 100 µM in each case. Further, the TGI in the experiment on OVCAR-4 ovarian and in the experiment with HCT-15 colon was above 100 µM throughout.
